Values of other authors, collected in patent publication US9522876B2, “Cytotoxic and anti-mitotic compounds, and methods of using the same” (ZYMEWORKS INC., priority 2013, dated 2016).

Tested on: cells
Settings: related art

Compound	anti-mitotic activity
CN[C@H](C(=O)N[C@H](C(=O)N(C)[C@H](/C=C(\C)C(=O)O)C(C)C)C(C)(C)C)C(C)(C)c1ccccc1 [HT1-286]	potent anti-mitotic activity
CN[C@H](C(=O)N[C@H](C(=O)N(C)[C@H](/C=C(\C)C(=O)O)C(C)C)C(C)(C)C)C(C)(C)c1cn(C)c2ccccc12 [hemiasterlin]	causes microtubule depolymerization and mitotic arrest in cells
